In article PMC6568410, “A scorpion venom peptide derivative BmKn‒22 with potent antibiofilm activity against Pseudomonas aeruginosa” (PLoS ONE, 2019):

Experiments:
[1] = tested on: P. aeruginosa PAO1; assay: MIC, broth microdilution; format: cell-based, Pseudomonas aeruginosa; settings: broth microdilution in LB broth, 10^6 CFU/mL, 37 °C, 24 h; printed only as half of the MIC
Description: MIC of azithromycin against P. aeruginosa was determined by using broth microdilution assay according to the protocol previously described with some modifications. Twofold serial dilutions of azithromycin (AZM; Sigma, St. Louis, USA) were prepared in LB broth in the wells of flat-bottomed 96-well microtiter plates (Nunc). Aliquots of P. aeruginosa PAO1 suspension at a final concentration of 10^6 CFU/mL was added to the wells of flat-bottomed 96-well microtiter plates (Nunc).

[2] = tested on: P. aeruginosa PAO1 biofilms; assay: Antibiofilm activity of BmKn-22 and azithromycin alone or in combination, crystal violet; format: cell-based, Pseudomonas aeruginosa
Description: The effect of BmKn‒2 peptide and derivatives on biofilm formation of P. aeruginosa PAO1 was determined according to the method published previously with some modifications. Briefly, 100 μL of the test peptides was plated into the wells of flat-bottomed 96-well microtiter plates (Nunc™, Roskilde, Denmark) at the final concentrations of 200 ‒ 800 μM. Aliquots of the P. aeruginosa PAO1 suspension were then inoculated to the wells of 96-well microtiter plates to obtain a final concentration of 10^6 CFU/mL. Culture without the test peptides was used as the untreated control. After incubation at 37 ^OC for 24 h without agitation, planktonic cells were removed and the plates were gently rinsed twice with phosphate buffered saline (PBS) pH 7.4. Biofilms were then stained with 0.1% crystal violet solution (Merck, Darmstadt, Germany) for 10 minutes at room temperature. Excess stains were rinsed off with PBS pH 7.4 and the plates were left dry at 37 ^OC for 2 h. Subsequently, biofilm biomass was solubilized with 30% acetic acid and the optical density (OD) measured at 550 nm using a microplate reader (BioTek Synergy HT).
Briefly, P. aeruginosa PAO1 suspension (10^6 CFU/mL, final concentration) was added to the wells of flat-bottomed 96-well microtiter plates (Nunc) containing the test peptide, azithromycin (AZM; Sigma) alone or in combinations. […] Biofilm formation was employed by measuring biofilm biomass stained with crystal violet as a protocol described in previous section.

SMILES: CC[C@H]1OC(=O)[C@H](C)[C@@H](O[C@H]2C[C@@](C)(OC)[C@@H](O)[C@H](C)O2)[C@H](C)[C@@H](O[C@@H]2O[C@H](C)C[C@H](N(C)C)[C@H]2O)[C@](C)(O)C[C@@H](C)CN(C)[C@H](C)[C@@H](O)[C@]1(C)O [AZM, azithromycin, reference compound]
- sub-MIC (1/2 of MIC) dose [1]: 64 µg/mL
- Biofilm biomass (% control) ([2]; azithromycin alone 64 µg/ml (1/2 MIC), 24 h, 37 °C, crystal violet, mean of 3 independent experiments): 100.000 % control
- Biofilm biomass (% control) ([2]; azithromycin alone 64 µg/ml, Exp. 1): 100.000 % control
- Biofilm biomass (% control) ([2]; azithromycin alone 64 µg/ml, Exp. 2): 100.000 % control
- Biofilm biomass (% control) ([2]; azithromycin alone 64 µg/ml, Exp. 3): 100.000 % control
- biofilm inhibition by azithromycin alone ([2]; sub-MIC dose (1/2 MIC, 64 µg/mL), result in words): significant biofilm inhibition was not evident
